Like-named read-outs stand apart in the source and are kept apart here.
How the values were obtained:
LoVo = experiment: Cytotoxicity assay (SRB), LoVo; format: cell-based; settings: Homo sapiens, LoVo, 72 h, LoVo cells, SRB, read-out: In Vitro Cellular Activity IC50 LOVO
Method in brief: (§1)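 Cells seeded overnight at 37 °C, 7% CO2 (BT474 12000, HCT-116 4000, LoVo and MCF-7 6000 cells/well) in RPMI 1640 with 5% FBS, then exposed to compound dilutions for 3 days (BT474 6 days). Survival versus untreated controls by TCA fixation and SRB staining, absorbance 540 nm.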

HCT-116 = experiment: Cytotoxicity assay (SRB), HCT-116; format: cell-based; settings: Homo sapiens, HCT-116, 72 h, HCT116 cells, SRB, read-out: In Vitro Cellular Activity IC50 HCT116
Method in brief: as §1

cyclin B/CDK1 enzyme = target: T1, cyclin B/CDK1 enzyme (Homo sapiens, UniProt P06493); experiment: CDK1 ELISA kinase assay (phospho-Rb ser 795 detection); format: biochemical; settings: In Vitro Enzyme Assays, read-out: CDK1 IC50
T1 construct: purchased New England BioLabs; host or cells: Sf9 insect cells, recombinant baculovirus
T1 sequence (P06493 whole entry): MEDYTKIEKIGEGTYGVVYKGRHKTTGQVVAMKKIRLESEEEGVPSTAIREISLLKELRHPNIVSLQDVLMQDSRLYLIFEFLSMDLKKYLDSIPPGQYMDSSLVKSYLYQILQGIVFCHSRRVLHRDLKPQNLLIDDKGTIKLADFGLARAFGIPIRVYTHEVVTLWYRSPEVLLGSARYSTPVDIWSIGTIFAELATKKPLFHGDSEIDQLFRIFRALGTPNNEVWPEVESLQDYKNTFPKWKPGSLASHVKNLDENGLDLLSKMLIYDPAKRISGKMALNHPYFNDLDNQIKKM
T1 sequence (P14635 whole entry partner): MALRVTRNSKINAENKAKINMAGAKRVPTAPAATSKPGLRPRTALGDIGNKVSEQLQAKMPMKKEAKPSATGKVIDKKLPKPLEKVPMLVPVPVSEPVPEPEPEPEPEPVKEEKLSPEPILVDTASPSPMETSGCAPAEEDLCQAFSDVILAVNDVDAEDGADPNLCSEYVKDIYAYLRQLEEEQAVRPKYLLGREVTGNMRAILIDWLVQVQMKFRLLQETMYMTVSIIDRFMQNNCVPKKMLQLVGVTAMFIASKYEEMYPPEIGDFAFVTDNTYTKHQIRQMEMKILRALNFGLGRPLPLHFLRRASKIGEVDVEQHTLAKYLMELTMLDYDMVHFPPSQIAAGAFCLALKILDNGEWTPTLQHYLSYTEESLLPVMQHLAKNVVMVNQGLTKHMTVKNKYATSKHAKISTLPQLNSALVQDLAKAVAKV
Method in brief: (§2)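 ELISA format: plate-bound GST-Rb, 200 μM ATP, Sf9 cyclin/CDK enzyme, 1 h at 30° C; then anti-pRb Ser795 primary overnight at 4° C, HRP secondary, TMB. IC50 after no-substrate background subtraction.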

cyclin E/CDK2 enzyme = target: T2, cyclin E/CDK2 enzyme (Homo sapiens, UniProt P24941); experiment: CDK2 ELISA kinase assay (phospho-Rb ser 795 detection); format: biochemical; settings: In Vitro Enzyme Assays, read-out: CDK2 IC50
T2 construct: made in house; host or cells: Sf9 insect cells, recombinant baculovirus
Method in brief: as §2

cyclin D1/cdk 4 enzyme = target: T3, cyclin D1/cdk 4 enzyme (Homo sapiens, UniProt P11802); experiment: CDK4 ELISA kinase assay (phospho-Rb ser 795 detection); format: biochemical; settings: In Vitro Enzyme Assays, 200 μM ATP, read-out: CDK4 IC50
T3 construct: made in house; host or cells: Sf9 insect cells, recombinant baculovirus
T3 sequence (P11802 whole entry, species assumed): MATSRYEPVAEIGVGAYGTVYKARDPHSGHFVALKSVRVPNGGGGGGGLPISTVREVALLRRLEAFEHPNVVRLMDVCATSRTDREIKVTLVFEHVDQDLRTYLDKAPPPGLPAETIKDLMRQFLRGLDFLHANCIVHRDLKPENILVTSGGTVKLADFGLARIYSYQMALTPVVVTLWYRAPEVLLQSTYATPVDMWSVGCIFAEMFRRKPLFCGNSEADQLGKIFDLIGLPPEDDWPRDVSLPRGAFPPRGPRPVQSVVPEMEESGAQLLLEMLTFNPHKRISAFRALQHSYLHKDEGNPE
T3 sequence (P24385 whole entry partner, species assumed): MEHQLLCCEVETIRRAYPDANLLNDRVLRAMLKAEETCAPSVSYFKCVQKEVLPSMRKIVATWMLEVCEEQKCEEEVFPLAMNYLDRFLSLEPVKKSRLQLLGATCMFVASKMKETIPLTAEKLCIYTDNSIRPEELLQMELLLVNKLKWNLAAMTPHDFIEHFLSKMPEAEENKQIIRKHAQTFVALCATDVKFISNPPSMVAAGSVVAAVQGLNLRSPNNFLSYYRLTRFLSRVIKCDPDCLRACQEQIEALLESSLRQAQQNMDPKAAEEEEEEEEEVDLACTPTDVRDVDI
Method in brief: as §2

BT474 = experiment: Cytotoxicity assay (SRB), BT474; format: cell-based
Method in brief: as §1

MCF-7 = experiment: Cytotoxicity assay (SRB), MCF-7; format: cell-based; settings: Homo sapiens, MCF7, 72 h, MCF-7 cells, SRB, read-out: In Vitro Cellular Activity IC50 MCF-7
Method in brief: as §1

[1] = Homo sapiens, BT-474, 144 h, BT474 cells, SRB, 6 days; read-out: In Vitro Cellular Activity IC50 BT474
[2] = Homo sapiens, BT-474, 144 h, BT474 cells, 6 days, SRB; read-out: In Vitro Cellular Activity IC50 BT474

Row | IC50 (cyclin B/CDK1 enzyme) | melting point | IC50 (cyclin E/CDK2 enzyme) | IC50 (cyclin D1/cdk 4 enzyme) | SMILES | IC50 (LoVo; three days) | IC50 (HCT-116; three days) | IC50 (BT474; [1]) | IC50 (MCF-7; three days) | IC50 (LoVo; 3 days) | IC50 (HCT-116; 3 days) | IC50 (BT474; [2]) | IC50 (MCF-7; 3 days)
1 | > 50 µM | 213 to 214 °C | > 50 µM | 31 µM | COc1ccc(-c2ccc3c(c2)/C(=C/Nc2cnc(N4C[C@@H](C)N[C@@H](C)C4)c(C)c2)C(=O)NC3=O)cc1 [Example 357, (4Z)-4-[({6-[(3R,5S)-3,5-Dimethylpiperazin-1-yl]-5-methylpyridin-3-yl}amino)methylene]-6-(4-methoxyphenyl)isoquinoline-1,3(2H,4H)-dione] | 2.8 µM | 1.1 µM | 2.5 µM | 1.6 µM | – | – | – | –
2 | 35.5 µM | 232 to 233 °C | 43.4 µM | 0.31 µM | COc1ccc(-c2ccc3c(c2)/C(=C/Nc2ccc(CN4CCCC4C)cc2)C(=O)NC3=O)cc1 (stereo not drawn) [Example 358, (4Z)-6-(4-Methoxyphenyl)-4-[({4-[(2-methylpyrrolidin-1-yl)methyl]phenyl}amino)-methylene]-isoquinoline-1,3(2H,4H)-dione] | 3 µM | 1.4 µM | 2.6 µM | 2.5 µM | – | – | – | –
3 | 1.5 µM | 185 to 186 °C | 0.26 µM | 0.02 µM | CN(C)C/C=C/C(=O)Nc1ccc(CN/C=C2\C(=O)NC(=O)c3ccc(I)cc32)cc1O [Example 359, (2E)-4-(Dimethylamino)-N-[2-hydroxy-4-({[(Z)-(6-iodo-1,3-dioxo-2,3-dihydroisoquinolin-4(1H)-ylidene)methyl]amino}methyl)phenyl]but-2-enamide] | 0.34 µM | 0.23 µM | 0.12 µM | 0.4 µM | – | – | – | –
4 | 31.7 µM | 236 to 237 °C | 1.9 µM | 0.12 µM | CCCNc1ccc(CN/C=C2\C(=O)NC(=O)c3ccc(I)cc32)cc1O [Example 366, (4Z)-4-({[3-Hydroxy-4-(propylamino)benzyl]amino}methylene)-6-iodoisoquinoline-1,3(2H,4H)-dione] | 2.8 µM | 3.3 µM | 3.8 µM | 6.9 µM | – | – | – | –
5 | 42.5 µM | 190 to 191 °C | > 50 µM | 21.1 µM | O=C1NC(=O)c2ccc(Br)cc2/C1=C/Nc1cc(F)c(N2CCN3CCC[C@H]3C2)c(F)c1 [Example 370, (4Z)-6-Bromo-4-[({3,5-difluoro-4-[(8aS)-hexahydropyrrolo[1,2-a]pyrazin-2(1H)-yl]phenyl}amino)methylene]isoquinoline-1,3(2H,4H)-dione] | 6.4 µM | 4.2 µM | 6.3 µM | 6.7 µM | – | – | – | –
6 | > 50 µM | 190 to 191 °C | > 50 µM | 0.1 µM | O=C1NC(=O)c2ccc(-c3ccsc3)cc2/C1=C/Nc1cc(F)c(N2CCN3CCC[C@H]3C2)c(F)c1 [Example 371, (4Z)-4-[({3,5-Difluoro-4-[(8aS)-hexahydropyrrolo[1,2-a]pyrazin-2(1H)-yl]phenyl}amino)-methylene]-6-thien-3-ylisoquinoline-1,3(2H,4H)-dione] | 2.8 µM | 1.1 µM | 3.1 µM | 4.1 µM | – | – | – | –
7 | > 50 µM | 224 to 225 °C | 20.2 µM | > 50 µM | C[C@@H]1CN(c2ccc(N/C=C3\C(=O)NC(=O)c4ccc(Br)cc43)cc2C(F)(F)F)C[C@H](C)N1 [Example 372, (4Z)-6-Bromo-4-({[4-[(3R,5S)-3,5-dimethylpiperazin-1-yl]-3-(trifluoromethyl)phenyl]amino}methylene)isoquinoline-1,3(2H,4H)-dione] | 1.4 µM | 1.2 µM | 2.9 µM | 3.2 µM | – | – | – | –
8 | > 50 µM | 191 to 192 °C | > 50 µM | 0.01 µM | C[C@@H]1CN(c2ccc(N/C=C3\C(=O)NC(=O)c4ccc(-c5ccoc5)cc43)cc2)C[C@H](C)N1C(=O)CN(C)C [Example 373, (4Z)-4-[({4-[(3R,5S)-4-(N,N-Dimethylglycyl)-3,5-dimethylpiperazin-1-yl]phenyl}amino)methylene]-6-(3-furyl)isoquinoline-1,3(2H,4H)-dione] | 1.9 µM | 0.75 µM | 3.5 µM | 2.1 µM | – | – | – | –
9 | 42.5 µM | 198 to 199 °C | > 50 µM | 0.1 µM | C[C@@H]1CN(c2ccc(N/C=C3\C(=O)NC(=O)c4ccc(-c5ccsc5)cc43)cc2)C[C@H](C)N1C(=O)CN(C)C [Example 380, (4Z)-4-[({4-[(3R,5S)-4-(N,N-Dimethylglycyl)-3,5-dimethylpiperazin-1-yl]phenyl}amino)methylene]-6-thien-3-ylisoquinoline-1,3(2H,4H)-dione] | 8.2 µM | 0.5 µM | 9.1 µM | 3.4 µM | – | – | – | –
10 | > 50 µM | 187 to 188 °C | 3.1 µM | 13.2 µM | C[C@@H]1CN(c2c(F)cc(N/C=C3\C(=O)NC(=O)c4ccc(Br)cc43)cc2F)C[C@H](C)N1 [Example 381, (4Z)-6-Bromo-4-[({4-[(3R,5S)-3,5-dimethylpiperazin-1-yl]-3,5-difluorophenyl}amino)-methylene]isoquinoline-1,3(2H,4H)-dione] | 3.4 µM | 2 µM | 3 µM | 4.3 µM | – | – | – | –
11 | > 50 µM | 208 to 209 °C | > 50 µM | 0.29 µM | O=C1NC(=O)c2ccc(-c3ccsc3)cc2/C1=C/Nc1ccc(N2CCN3CCC[C@H]3C2)c(F)c1 [Example 382, (4Z)-4-[({3-Fluoro-4-[(8aS)-hexahydropyrrolo[1,2-a]pyrazin-2(1H)-yl]phenyl}amino)-methylene]-6-thien-3-ylisoquinoline-1,3(2H,4H)-dione] | 3.7 µM | 1.2 µM | 2.7 µM | 2.7 µM | – | – | – | –
12 | 14.4 µM | 195 to 196 °C | 25.9 µM | 0.45 µM | C[C@@H]1CN(c2c(F)cc(N/C=C3\C(=O)NC(=O)c4ccc(-c5ccsc5)cc43)cc2F)C[C@H](C)N1 [Example 383, (4Z)-4-[({4-[(3R,5S)-3,5-Dimethylpiperazin-1-yl]-3,5-difluorophenyl}amino)methylene]-6-thien-3-ylisoquinoline-1,3(2H,4H)-dione] | 2.6 µM | 0.84 µM | 1.3 µM | 2.1 µM | – | – | – | –
13 | > 50 µM | 199 to 200 °C | > 50 µM | 0.21 µM | COC1CCN(Cc2ccc(N/C=C3\C(=O)NC(=O)c4ccc(I)cc43)cc2)CC1 [Example 394, (4Z)-6-Iodo-4-[({4-[(4-methoxypiperidin-1-yl)methyl]phenyl}amino)methylene]isoquinoline-1,3(2H,4H)-dione] | – | – | – | – | 3.7 µM | 3.7 µM | 4.03 µM | 2.6 µM
14 | > 50 µM | 188 to 189 °C | > 50 µM | 0.14 µM | COC1CCN(Cc2ccc(N/C=C3\C(=O)NC(=O)c4ccc(-c5ccc(F)cc5)cc43)cc2)CC1 [Example 395, (4Z)-6-(4-Fluorophenyl)-4-[({4-[(4-methoxypiperidin-1-yl)methyl]phenyl}amino)methylene]isoquinoline-1,3(2H,4H)-dione] | – | – | – | – | 2.8 µM | 2.3 µM | 1.49 µM | 1.4 µM
15 | > 50 µM | 204 to 205 °C | > 50 µM | 1.8 µM | O=C1NC(=O)c2ccc(Br)cc2/C1=C/Nc1ccc(N2CCC(N3CCCC3)CC2)c(F)c1 [Example 405, (4Z)-6-Bromo-4-({[3-fluoro-4-(4-pyrrolidin-1-ylpiperidin-1-yl)phenyl]amino}-methylene)-isoquinoline-1,3(2H,4H)-dione] | – | – | – | – | 2 µM | 1.7 µM | 3.1 µM | 5.6 µM

— patent US7713994B2 (Wyeth LLC, priority 2005, dated 2010)
